Several values for one entry are separate records, joined by “and”; a condition that tells them apart may be missing. Equal entries are not always repeated. Where two headings read alike, the source gives them in different places.
Experiments:
[1] = test system: T. cruzi intracellular amastigotes; assay: Image-based assay of the number of T. cruzi infected cells (intracellular amastigotes in 3T3 host cells); type: cell-based, Trypanosoma cruzi; conditions: for IC50: highest test concentration 183 μM
Description: (§1) Parasites and host cells were maintained as outlined previously. Briefly, host 3T3 fibroblasts (ATCC, CCL-92) were grown in RPMI medium (Thermo Fisher Scientific, USA) with no phenol red, supplemented with 10% FBS (Thermo Fisher Scientific, USA) and incubated at 37°C in 5% CO2. Host cells were harvested at 70% confluency and were split every 2–3 days in 175 cm^2 flasks. 3T3 cells were cultured up to passage 7 as contact inhibition was reduced or lost at higher passages. Prior to infection with T. cruzi trypomastigotes, host cells were seeded at 1.2 x 10^6 cells in 75 cm^2 or 4 x 10^5 cells in 25 cm^2 flasks and grown for 24 hours before parasite addition. Parasites were added at a multiplicity of infection (MOI) of 10:1 and incubated for 24 hours before non-infected trypomastigotes were washed off the host cell bed with PBS supplemented with Ca^2+ and Mg^2+ (Thermo Fisher Scientific, USA). Incubation was continued for a further 3 days, until tissue culture trypomastigotes began to egress from host cells. Egressed parasites were used for assays or to continue the infective life cycle in vitro.
(§2) The activity of the nucleoside analogues against T. cruzi intracellular amastigotes following 24, 48 hours exposure and compound wash off, was determined using image-based techniques as previously described. Briefly, 14-point serial dilutions of the compounds in 100% DMSO were prepared and then further diluted in sterile water at a ratio of 1:21 compound: water. Five microliters of the diluted compounds were added to wells of T. cruzi infected host cells, using a MiniTrak compound handling device (Perkin Elmer, USA) with final concentrations in the plate ranging from 183 μM to 4.6 x 10^−4 μM. All experiments were performed with two separate biological replicates.
IC50 values for inhibitory activity of both the nucleoside analogues tested as DNA probes and known inhibitors tested to determine their effect on replication of T. cruzi were calculated in GraphPad Prism 5, using sigmoidal dose response with variable slope. […] The p-value for difference in the % activity at Emax concentrations for compounds with known activity (EdU identified parasites, compared to Hoechst identified parasites) against T. cruzi was determined using GraphPad Prism 5, using an unpaired student’s t-test. […] The Emax for each compound was at least two data points in from the beginning of the plateau of activity in the IC50 curve, as previously described.

[2] = test system: 3T3 cells; assay: Image-based assay, effect on 3T3 host cells; type: cell-based
Description: as §1
as §2, with “The activity of the nucleoside analogues against T. cruzi intracellular amastigotes following 24, 48 hours exposure and compound wash off, was determined using image-based techniques as previously described.” left out
Image analysis was performed with a script developed in Columbus software (CHEMICAL LABEL INCORPORATION SCRIPT). Control wells were also imaged at an increased, 60x magnification to show the distribution of staining and the structure of the parasites within host cells. Eight background control wells consisted of infected host cells, fixed and exposed to Hoechst and the click chemistry cocktail, without the addition of the chemical probe EdU. […] The percentage activity of compounds against parasite number / infected cells (identified with Hoechst) was calculated against a positive control of 12 μM of NFX for the parasite and 30 μM of PURO the host cells; and a negative control of 0.47% DMSO. All images taken were not modified and were taken on an Opera, confocal image-based reader.

[3] = test system: T. cruzi amastigote DNA; assay: Incorporation of pyrimidine nucleoside analogues into T. cruzi amastigote DNA (click chemistry, colocalisation with Hoechst); type: cell-based, Trypanosoma cruzi
Description: T. cruzi infected 3T3 fibroblasts were initially exposed to nucleoside analogues for 48 hours at concentrations ranging from 73 μM to 1.8 x10^-4 μM. Host cell, parasite and compound additions were carried out as previously described. Cells were then stained using a click chemistry azide cocktail, followed by Hoechst to identify nuclear material, as previously reported. The freshly prepared azide cocktail consisted of a final concentration of 5 μM of Alexa Fluor 488 azide (Thermo Fisher Scientific, USA), 1 mM copper sulfate (Sigma Aldrich, USA) and 100 mM sodium ascorbate (Sigma Aldrich, USA), in DPBS. Wells were imaged on an Opera image-based reader (Perkin Elmer, USA) at 20x magnification with 405 nm (defined as Hoechst channel) and 488 nm (defined as Alexa 488 channel) lasers using filter sets/bandwidth (emission) of 450/50 nm and 540/75 nm, respectively. To determine nucleoside analogue incorporation into T. cruzi amastigote DNA, a script was developed utilising the Columbus (PerkinElmer, USA) image-based analysis and data handling platform (CHEMICAL LABEL INCORPORATION SCRIPT). Nucleoside analogues were also tested for DNA incorporation following 2, 4 and 24 hours exposure, at the same concentrations. All experiments were performed in duplicate. The colocalisation of nucleoside analogues and Hoechst (replicating parasites) at each time point (48, 4 and 2 hours) was compared using GraphPad Prism 5.
A CHEMICAL LABEL INCORPORATION SCRIPT developed in Columbus firstly identified Hoechst stained parasites within host cells by spot analysis, utilizing the same building block analysis as we had previously developed to determine T. cruzi infected cells. The physical definition of amastigote DNA was identified by Hoechst, with the only modification being that as there was no cytoplasmic marker, thus segmentation borders in the Hoechst channel were applied, which effectively separated host cells (Fig 2). Further building blocks were added to calculate the intensity of Alexa Fluor 488 within the spots identified by Hoechst, in infected cells. This script was first applied to images to determine the mean fluorescence intensity in the Alexa 488 channel of Hoechst identified parasites, without the addition of the chemical label. The mean plus three times the standard deviation of this intensity was used to define values above background, thus the minimum intensity above background required to identify parasite DNA which successfully incorporated the chemical label. An input box was incorporated into the script, in which this minimum intensity above background was entered. Parameters of the developed script, “CHEMICAL LABEL INCORPORATION” are shown in S1 Table.
• Number of T. cruzi amastigote infected cells (≥5 parasites per cell, identified with Hoechst). • Number of Hoechst identified T. cruzi parasites (in infected cells). • Number of parasites incorporating chemical label (T. cruzi parasites with Alexa 488 intensity above background, in infected cells). • % chemical label incorporation. Alexa 488 spots in infected cells (above background) NO / Hoechst spots in infected cells NO *100 = Percentage colocalisation; where NO = number of objects. • Number of host cells.

C#Cc1cn([C@H]2C[C@H](O)[C@@H](CO)O2)c(=O)[nH]c1=O [EdU, 5-ethynyl-2′-deoxy-uridine]
SI (selectivity index to T. cruzi intracellular amastigotes in relation to HEK293 cells) ([1]; 48 hours exposure): 17 | inhibition at 0.018 µM ([1]; Trypanosoma cruzi, 48 h, 0.018 μM, 48 hours, read-out: inhibition of T. cruzi growth): 63 ± 19% | inhibition at 0.037 µM ([1]; Trypanosoma cruzi, 48 h, 0.037 μM, 48 hours, read-out: inhibition of T. cruzi growth): 51 ± 13% | IC50 ([1]; Trypanosoma cruzi, 24 hours exposure, read-out: T. cruzi 24 IC50 value): 73 ± 49 nM | Emax ([1]; Trypanosoma cruzi, 24 hours exposure, read-out: T. cruzi 24 relative Emax (in brackets) (converted)): 83% | IC50 ([1]; Trypanosoma cruzi, 48 hours incubation, compound wash off, further 72 hours without compound, read-out: T. cruzi Wash off IC50 value): 420 ± 61 nM | Emax ([1]; Trypanosoma cruzi, 48 hours incubation, wash off, further 72 hours without compound, read-out: T. cruzi Wash off relative Emax (in brackets) (converted)): 99% | IC50 ([1]; Trypanosoma cruzi, 48 hours incubation, read-out: T. cruzi 48 IC50 value): 40 ± 25 nM | Emax ([1]; Trypanosoma cruzi, 48 hours incubation, read-out: T. cruzi 48 relative Emax (in brackets) (converted)): 98% | activity against host cells after short exposure ([2]; 2 and 4 hour exposures, 73 μM): less than 20% | Host cell 3T3 IC50 value 48 h ([2]; 48 h, highest test concentration 183 μM): NA (NA = ≤50% activity at the highest concentration tested and an IC50 value could not be determined) | activity against 3T3 cells in the image-based assay ([2]; 48 hours): < 20% | % incorporation into T. cruzi DNA ([3]; 2 hours, 1.8 μM): 75 ± 3.6% | % of Hoechst defined T. cruzi cells with incorporation ([3]; 4 hours, 0.37 μM): 89 ± 4.8% | % of cells with incorporation ([3]; 48 hours exposure, 0.018 μM): 72 ± 1.09% | % of cells containing Alexa Fluor 488 labelled DNA (incorporation) ([3]; 48 hours exposure, 0.037 μM): 93.1 ± 2.8% | highest incorporation ([3]; 48 hours exposure, 0.073 μM): 94 ± 2.5% and 94% | incorporation into T. cruzi DNA following 48 hours incubation (in words) ([3]; 48 hours incubation): incorporated
